Like-named read-outs stand apart in the source and are kept apart here.
Assays:
[1] = test system: Akt phosphorylated at Thr308 in PC-3 cells; experiment: Cellular assay: phosphorylation of Akt at Thr308 in PC-3 cells (MSD ELISA); assay type: cell-based; conditions: PC-3 cells, 60 min compound incubation, MSD ELISA, read-out: IC50 pAkt_Thr308
Method: (§1) Cellular activity of PI3KP inhibitors was determined by quantifying the phosphorylation of Akt in PC-3 cells. Akt phosphorylated at Ser473 and Thr308 were measured using an enzyme-linked immunosorbent assay (ELISA; Meso Scale Discovery (MSD), Gaithersburg. Md.) and specific primary antibodies from MSD.
(§2) On day 2, compound or DMSO (0.3%) was added and cells were further incubated for 60 min at 37° C. 5% CO2 in a total volume of 100 μl of medium.
(§3) The phosphoprotein assay was executed according to vendor instructions in the Phospho-Akt (Ser473) Assay Whole Cell Lysate Kit (MSD # K15100D-3) and the Phospho-Akt (Thr308) Assay Whole Cell Lysate Kit (MSD # K151DYD-3) using the lysis, blocking and wash buffer provided.
(§4) Briefly, at the end of the cell treatment period, media were removed by aspiration and adherent cells were lysed in 50 μl ice-cold lysis buffer. MSD plates are supplied pre-coated with capture antibodies for Phospho-Akt (Ser473 and Thr308). After blocking, lysates from tissue culture plates were added and plates were washed. Then, a solution containing the detection antibody (anti-total Akt conjugated with an electrochemiluminescent compound-MSD Sulfo-tag label) was added. The signals were detected using an MSD SECTOR Imager 6000 and are proportional to the phospho-Akt titres.
(§5) Data were processed. […] From these concentration-response curves, the IC50 values were calculated. Five concentrations were used for curve fitting.

[2] = test system: Akt phosphorylated at Ser473 in PC-3 cells; experiment: Cellular assay: phosphorylation of Akt at Ser473 in PC-3 cells (MSD ELISA); assay type: cell-based; conditions: PC-3 cells, 60 min compound incubation, MSD ELISA, read-out: IC50 pAkt_S473
Method: as §1, §2, §3, §4, §5

PI3Kβ = target: T1, PI3Kβ (Homo sapiens, UniProt P42338); experiment: Enzyme binding assay (KINOMEscan, DiscoveRx); conditions: PIK3Cβ_h, read-out: Kd PIK3Cβ_h
T1 construct: purchased DiscoveRx Corporation, San Diego (contract service, KINOMEscan)
T1 sequence (P42338 whole entry): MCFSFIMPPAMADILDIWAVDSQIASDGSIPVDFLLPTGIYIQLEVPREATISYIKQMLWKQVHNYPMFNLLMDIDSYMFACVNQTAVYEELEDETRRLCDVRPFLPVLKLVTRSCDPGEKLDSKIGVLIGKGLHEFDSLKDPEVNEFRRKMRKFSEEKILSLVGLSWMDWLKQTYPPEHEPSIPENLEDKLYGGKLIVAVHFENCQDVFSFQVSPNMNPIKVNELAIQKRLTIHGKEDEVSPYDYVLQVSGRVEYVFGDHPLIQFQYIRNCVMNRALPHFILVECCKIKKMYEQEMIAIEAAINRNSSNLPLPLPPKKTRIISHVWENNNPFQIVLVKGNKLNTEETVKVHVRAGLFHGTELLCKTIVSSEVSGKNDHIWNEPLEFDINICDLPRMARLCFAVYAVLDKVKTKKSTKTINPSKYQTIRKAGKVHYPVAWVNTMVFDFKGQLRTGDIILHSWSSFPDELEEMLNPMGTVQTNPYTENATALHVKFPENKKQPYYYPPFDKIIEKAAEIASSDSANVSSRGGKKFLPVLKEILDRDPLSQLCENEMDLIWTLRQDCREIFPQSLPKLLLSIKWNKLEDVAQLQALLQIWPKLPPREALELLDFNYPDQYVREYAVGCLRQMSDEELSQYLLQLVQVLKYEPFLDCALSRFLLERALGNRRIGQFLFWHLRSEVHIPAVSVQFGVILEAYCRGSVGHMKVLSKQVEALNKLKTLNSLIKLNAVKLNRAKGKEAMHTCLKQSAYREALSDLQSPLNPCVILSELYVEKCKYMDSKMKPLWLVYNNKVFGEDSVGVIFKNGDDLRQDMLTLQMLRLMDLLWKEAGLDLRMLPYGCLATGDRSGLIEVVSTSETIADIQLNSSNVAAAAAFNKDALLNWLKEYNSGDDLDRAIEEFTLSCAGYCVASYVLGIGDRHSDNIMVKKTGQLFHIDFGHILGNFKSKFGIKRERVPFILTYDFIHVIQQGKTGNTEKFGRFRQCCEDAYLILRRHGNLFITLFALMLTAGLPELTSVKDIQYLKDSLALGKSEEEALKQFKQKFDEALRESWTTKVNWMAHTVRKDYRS
Method: (§6) Enzyme Binding Assays (KINOMEscan®)
Kinase enzyme binding affinities of compounds disclosed herein were determined using the KINOMEscan technology performed by DiscoveRx Corporation, San Diego, Calif., USA (www.kinomescan.com). Table A reports the obtained Kd values (nM), with the Kd being the inhibitor binding constant: […]

PI3Kδ = target: T2, PI3Kδ (Homo sapiens, UniProt O00329); experiment: Enzyme binding assay (KINOMEscan, DiscoveRx); conditions: PIK3Cδ_h
T2 construct: purchased DiscoveRx Corporation, San Diego (contract service, KINOMEscan)
T2 sequence (O00329 1-1044): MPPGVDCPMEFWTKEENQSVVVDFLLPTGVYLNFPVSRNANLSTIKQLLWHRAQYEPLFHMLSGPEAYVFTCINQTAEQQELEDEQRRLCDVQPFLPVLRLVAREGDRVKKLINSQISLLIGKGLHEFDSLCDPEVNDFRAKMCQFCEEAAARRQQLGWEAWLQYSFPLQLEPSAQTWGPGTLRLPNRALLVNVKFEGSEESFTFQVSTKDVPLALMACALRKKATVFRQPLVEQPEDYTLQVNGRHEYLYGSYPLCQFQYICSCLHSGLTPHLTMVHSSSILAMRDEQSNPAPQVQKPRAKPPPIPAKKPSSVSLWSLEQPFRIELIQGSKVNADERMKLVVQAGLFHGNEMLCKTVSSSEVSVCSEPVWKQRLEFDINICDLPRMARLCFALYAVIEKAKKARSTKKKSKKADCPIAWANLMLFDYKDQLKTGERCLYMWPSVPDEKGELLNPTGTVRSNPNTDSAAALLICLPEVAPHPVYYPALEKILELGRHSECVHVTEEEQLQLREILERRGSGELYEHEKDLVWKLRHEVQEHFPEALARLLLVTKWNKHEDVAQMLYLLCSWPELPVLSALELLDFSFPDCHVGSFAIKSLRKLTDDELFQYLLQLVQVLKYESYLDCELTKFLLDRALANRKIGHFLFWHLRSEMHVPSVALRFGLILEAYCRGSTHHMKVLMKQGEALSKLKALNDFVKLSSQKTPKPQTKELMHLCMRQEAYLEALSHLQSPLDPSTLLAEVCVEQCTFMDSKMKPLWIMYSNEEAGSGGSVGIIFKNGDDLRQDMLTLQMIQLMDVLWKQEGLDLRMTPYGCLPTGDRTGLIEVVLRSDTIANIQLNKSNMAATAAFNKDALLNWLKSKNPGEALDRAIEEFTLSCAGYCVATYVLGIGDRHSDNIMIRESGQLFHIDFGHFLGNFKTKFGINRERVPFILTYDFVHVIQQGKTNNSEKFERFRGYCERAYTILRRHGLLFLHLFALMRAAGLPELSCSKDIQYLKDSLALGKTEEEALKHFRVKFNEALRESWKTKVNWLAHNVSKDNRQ
Method: as §6
(§7) Kinase enzyme binding affinities of compounds disclosed herein were determined using the KINOMEscan technology performed by DiscoveRx Corporation, San Diego, Calif., USA (www.kinomescan.com).

kinase enzymes [3] = target: T3, kinase enzymes (Homo sapiens, UniProt P42336); experiment: Enzyme binding assay (KINOMEscan, DiscoveRx), further kinases of Table A; conditions: PIK3Cα_h
T3 construct: purchased DiscoveRx Corporation, San Diego (contract service, KINOMEscan)
T3 sequence (P42336 whole entry): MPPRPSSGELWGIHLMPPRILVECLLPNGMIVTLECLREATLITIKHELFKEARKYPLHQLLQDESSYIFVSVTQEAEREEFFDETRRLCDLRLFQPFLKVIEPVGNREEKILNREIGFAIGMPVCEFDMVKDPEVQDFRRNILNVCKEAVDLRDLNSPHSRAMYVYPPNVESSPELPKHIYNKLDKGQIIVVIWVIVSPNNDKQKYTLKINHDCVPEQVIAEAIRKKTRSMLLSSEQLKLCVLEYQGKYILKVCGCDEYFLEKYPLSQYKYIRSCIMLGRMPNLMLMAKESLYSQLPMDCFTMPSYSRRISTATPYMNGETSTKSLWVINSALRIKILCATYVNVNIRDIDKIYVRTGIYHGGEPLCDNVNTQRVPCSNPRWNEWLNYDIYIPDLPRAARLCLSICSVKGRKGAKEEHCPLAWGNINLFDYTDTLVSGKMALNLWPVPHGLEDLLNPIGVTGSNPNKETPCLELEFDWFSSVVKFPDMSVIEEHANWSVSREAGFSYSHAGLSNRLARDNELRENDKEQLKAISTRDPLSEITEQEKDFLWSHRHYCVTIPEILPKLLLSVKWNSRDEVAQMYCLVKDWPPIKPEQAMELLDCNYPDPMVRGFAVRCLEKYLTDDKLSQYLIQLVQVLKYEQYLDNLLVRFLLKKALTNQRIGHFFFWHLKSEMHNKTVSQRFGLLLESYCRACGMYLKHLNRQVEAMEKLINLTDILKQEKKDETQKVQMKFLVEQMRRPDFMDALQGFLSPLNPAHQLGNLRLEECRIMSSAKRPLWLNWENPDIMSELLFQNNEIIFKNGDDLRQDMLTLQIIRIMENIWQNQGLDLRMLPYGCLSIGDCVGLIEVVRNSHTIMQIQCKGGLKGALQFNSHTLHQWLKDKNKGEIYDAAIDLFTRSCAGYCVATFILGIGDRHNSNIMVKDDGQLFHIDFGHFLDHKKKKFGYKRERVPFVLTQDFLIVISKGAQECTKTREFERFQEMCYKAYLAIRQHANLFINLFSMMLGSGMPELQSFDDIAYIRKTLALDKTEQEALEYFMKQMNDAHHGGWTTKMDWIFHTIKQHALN
Method: as §6, §7

kinase enzymes [4] = target: T4, kinase enzymes (Homo sapiens, UniProt P42345); experiment: as above; conditions: MTOR_h
T4 construct: purchased DiscoveRx Corporation, San Diego (contract service, KINOMEscan)
Method: as §6, §7

kinase enzymes [5] = target: T5, kinase enzymes (Homo sapiens, UniProt P48736); experiment: as above; conditions: PIK3Cγ_h
T5 construct: purchased DiscoveRx Corporation, San Diego (contract service, KINOMEscan)
T5 sequence (P48736 whole entry): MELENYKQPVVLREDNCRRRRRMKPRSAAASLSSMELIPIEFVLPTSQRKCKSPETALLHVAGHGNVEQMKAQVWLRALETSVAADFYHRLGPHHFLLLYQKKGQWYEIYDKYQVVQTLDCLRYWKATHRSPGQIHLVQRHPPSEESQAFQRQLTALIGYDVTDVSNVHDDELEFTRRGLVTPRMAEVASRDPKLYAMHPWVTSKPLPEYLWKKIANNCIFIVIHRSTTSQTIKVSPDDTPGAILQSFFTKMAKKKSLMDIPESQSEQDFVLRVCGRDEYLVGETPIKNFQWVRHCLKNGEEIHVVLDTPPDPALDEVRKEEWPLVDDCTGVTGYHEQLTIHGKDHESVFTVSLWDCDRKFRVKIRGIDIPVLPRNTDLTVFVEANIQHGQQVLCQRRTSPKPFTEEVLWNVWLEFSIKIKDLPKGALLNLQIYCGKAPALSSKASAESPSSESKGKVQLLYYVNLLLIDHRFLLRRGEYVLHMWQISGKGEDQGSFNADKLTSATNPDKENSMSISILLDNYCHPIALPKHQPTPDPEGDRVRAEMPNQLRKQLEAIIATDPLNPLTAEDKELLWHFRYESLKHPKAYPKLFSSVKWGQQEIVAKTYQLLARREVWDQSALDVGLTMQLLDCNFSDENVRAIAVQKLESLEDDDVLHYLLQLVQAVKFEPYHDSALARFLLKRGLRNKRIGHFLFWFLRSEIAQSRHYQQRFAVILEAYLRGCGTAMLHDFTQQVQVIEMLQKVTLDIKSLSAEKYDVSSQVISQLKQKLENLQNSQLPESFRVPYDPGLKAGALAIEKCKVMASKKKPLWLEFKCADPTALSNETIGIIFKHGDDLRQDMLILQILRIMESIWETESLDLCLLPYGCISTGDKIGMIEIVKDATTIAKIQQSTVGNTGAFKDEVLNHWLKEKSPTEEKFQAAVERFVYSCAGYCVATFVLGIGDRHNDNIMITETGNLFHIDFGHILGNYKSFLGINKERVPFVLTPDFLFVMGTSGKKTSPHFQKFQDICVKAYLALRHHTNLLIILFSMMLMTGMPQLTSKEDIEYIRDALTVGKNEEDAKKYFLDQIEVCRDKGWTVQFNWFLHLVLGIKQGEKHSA
Method: as §6, §7

Row | Compound | IC50 ([1]; Homo sapiens, PC-3, 1 h) [nM] | IC50 ([2]; Homo sapiens, PC-3, 1 h) [nM] | Kd (PI3Kβ) [nM] | Kd (PI3Kδ) [nM] | Kd (kinase enzymes [3]) [nM] | Kd (kinase enzymes [4]) [nM] | Kd (kinase enzymes [5]) [nM] | IC50 [1] [nM] | IC50 [2] [nM]
1 | CC(Oc1cc(F)cc(F)c1)c1cc(C(=O)N(C)CCO)cc2ncc(N3CCOCC3)nc12 (racemic) [Compound 59] | 110 | 263 | 3 | 331 | 1200 | > 30200 | 10700 | – | –
2 | CC(Oc1cccc(F)c1)c1cc(C(=O)N(C)C)cc2ncc(N3CCOCC3)nc12 (racemic) [Compound 339] | – | – | 427 | 2460 | 5890 | 16200 | 9330 | > 513 | > 513
3 | CC(Oc1cc(F)cc(F)c1)c1cc(C(=O)N(C)C)cc2ncc(N3CCOCC3)nc12 (single isomer, unassigned) [Compound 5] | – | – | 2 | 225 | 1590 | 25100 | 7980 | 99 | 100
4 | CC(Oc1cc(F)cc(F)c1)c1cc(C(=O)N(C)C)cc2ncc(N3CCOCC3)nc12 (single isomer, unassigned) [Compound 6] | – | – | 1890 | 16900 | 26000 | > 30200 | > 30200 | > 513 | > 513
5 | CC(Nc1cc(F)cc(F)c1)c1cc(C(=O)N2CCOCC2)cc2ncc(N3CCOCC3)nc12 (single isomer, unassigned) [Compound 9] | – | – | 417 | 18200 | 27500 | > 30200 | > 30200 | > 513 | > 513
6 | CC(O)c1cc(C2CCCN2c2cc(F)cc(F)c2)c2nc(N3CCOCC3)cnc2c1 (single isomer, unassigned) [Compound 15] | – | – | 1 | 43 | 234 | > 30200 | 372 | 2 | 4
7 | C[C@@H]1CN(c2cnc3cc(C(=O)N(C)C)cc(C4CCCN4c4cccc(F)c4)c3n2)CCO1 (single isomer, unassigned) [Compound 29] | – | – | 1660 | 21900 | 10200 | 23400 | > 30200 | > 513 | > 513
8 | C[C@@H]1CN(c2cnc3cc(C(=O)N(C)C)cc(C4CCCN4c4cccc(F)c4)c3n2)CCO1 (single isomer, unassigned) [Compound 30] | – | – | 1 | 18 | 39 | 21900 | 407 | ~4 | 5
9 | CN1CCN(C(=O)c2cc(C3CCCN3c3cc(F)cc(F)c3)c3nc(N4CCOCC4)cnc3c2)CC1 (single isomer, unassigned) [Compound 58] | – | – | 9 | 912 | 2000 | > 30200 | 18600 | 295 | > 513

More lines, now with the values ahead:

Row | IC50 ([1]; Homo sapiens, PC-3, 1 h) [nM] | IC50 ([2]; Homo sapiens, PC-3, 1 h) [nM] | Kd (PI3Kβ) [nM] | Kd (PI3Kδ) [nM] | Kd (kinase enzymes [3]) [nM] | Kd (kinase enzymes [4]) [nM] | Kd (kinase enzymes [5]) [nM] | IC50 [1] [nM] | IC50 [2] [nM] | Compound
10 | 219 | ~490 | 30 | 2630 | 19100 | > 30200 | 29500 | – | – | CC(Oc1cc(F)cc(F)c1)c1cc(C(=O)N2CCC2)cc2ncc(N3CCO[C@H](CO)C3)nc12 (mixture of isomers) [Compound 81]
11 | – | – | 18 | 2040 | 7410 | > 30200 | 17000 | 245 | 398 | CC(C)NCCNC(=O)c1cc(C(C)Oc2ccc(F)c(F)c2)c2nc(N3CCOCC3)cnc2c1 (racemic) [Compound 286]
12 | – | – | 490 | 15500 | 22900 | > 30200 | > 30200 | > 513 | > 513 | CC(Oc1cc(F)cc(F)c1)c1cc(C(=O)N(C)CCO)cc2ncc(N3CCOCC3)nc12 (single isomer, unassigned) [Compound 60]
13 | – | – | 2 | 209 | 676 | > 30200 | 5250 | 123 | 182 | CC(Oc1cc(F)cc(F)c1)c1cc(C(=O)N(C)CCO)cc2ncc(N3CCOCC3)nc12 (single isomer, unassigned) [Compound 61]
14 | 331 | > 513 | 9 | 282 | 2040 | > 30200 | 19500 | – | – | CC(Oc1cccc(F)c1F)c1cc(C(=O)N(C)C)cc2ncc(N3CCOCC3)nc12 (single isomer, unassigned) [Compound 73]
15 | – | – | 603 | 5620 | 8510 | 23400 | > 30200 | > 513 | > 513 | CC(Oc1cccc(F)c1F)c1cc(C(=O)N(C)C)cc2ncc(N3CCOCC3)nc12 (single isomer, unassigned) [Compound 74]
16 | – | – | 5 | 603 | 2140 | 14100 | 4680 | 89 | 178 | CC(Oc1cccc(F)c1)c1cc(CO)cc2ncc(N3CCOCC3)nc12 (single isomer, unassigned) [Compound 88]
17 | – | – | 832 | 11700 | 7240 | 13500 | 9550 | > 513 | > 513 | CC(Oc1cccc(F)c1)c1cc(CO)cc2ncc(N3CCOCC3)nc12 (single isomer, unassigned) [Compound 89]
18 | – | > 513 | 10 | 1230 | 4470 | > 30200 | 21400 | 234 | – | CCN1CCN(C(=O)c2cc(C(C)Oc3cccc(F)c3)c3nc(N4CCOCC4)cnc3c2)CC1 (single isomer, unassigned) [Compound 91]
19 | – | – | 1020 | 16600 | 16200 | > 30200 | > 30200 | > 513 | > 513 | CCN1CCN(C(=O)c2cc(C(C)Oc3cccc(F)c3)c3nc(N4CCOCC4)cnc3c2)CC1 (single isomer, unassigned) [Compound 92]
20 | – | – | 0.5 | 178 | 295 | > 30200 | 1100 | 18 | 34 | OC(CN1CCC1)c1cc(C2CCCN2c2cc(F)cc(F)c2)c2nc(N3CCOCC3)cnc2c1 (single isomer, unassigned) [Compound 95]
